Patent US6525050B1, “(4-oxo-2-pyrimidinyl)thioalkyl compounds useful as AICARFT inhibitors” (Agouron Pharmaceuticals, Inc., priority 1998, dated 2003)

Each compound was assayed against AICARFT (Homo sapiens, UniProt P31939) (assay: AICARFT activity, spectrophotometric enzyme assay (modified Black et al.)). Conditions: 50 mM Tris-HCl pH 7.5, 25° C., absorbance at 298 nm, substrates AICAR and FTHF, steady-state rate.
Assay type: biochemical
Protocol: Enzymatic activity was measured spectrophotometrically using a modified assay developed by Black et al. (“A Rapid Assay for 5-Amino-4-imidazolecarboxamide Ribotide Transformylase,” Anal. Biochiem. 90 (1978), 397-401). The reaction volume was 1 mL and contained 50 mM Tris-HCl pH 7.5, 25 mM KCl, 20 mM 2-mercaptoethanol, variable concentrations of test compound in 1% DMSO, […] (5-aminoimidazole-4-carboxamideribonucleotide), […] tetrathydrofolate (FTHF), and 0.015 mM enzyme. The reaction was enzyme-initiated and followed by monitoring the increase in absorbance at 298 nm at 25° C. (ξ298=19.7×10^3 cm^−1M^−1). AICARFT inhibition constants (Ki) were determined from the dependence of the steady-state catalytic rate upon compound and substrate concentration.

Chain of AICARFT (P31939 whole entry): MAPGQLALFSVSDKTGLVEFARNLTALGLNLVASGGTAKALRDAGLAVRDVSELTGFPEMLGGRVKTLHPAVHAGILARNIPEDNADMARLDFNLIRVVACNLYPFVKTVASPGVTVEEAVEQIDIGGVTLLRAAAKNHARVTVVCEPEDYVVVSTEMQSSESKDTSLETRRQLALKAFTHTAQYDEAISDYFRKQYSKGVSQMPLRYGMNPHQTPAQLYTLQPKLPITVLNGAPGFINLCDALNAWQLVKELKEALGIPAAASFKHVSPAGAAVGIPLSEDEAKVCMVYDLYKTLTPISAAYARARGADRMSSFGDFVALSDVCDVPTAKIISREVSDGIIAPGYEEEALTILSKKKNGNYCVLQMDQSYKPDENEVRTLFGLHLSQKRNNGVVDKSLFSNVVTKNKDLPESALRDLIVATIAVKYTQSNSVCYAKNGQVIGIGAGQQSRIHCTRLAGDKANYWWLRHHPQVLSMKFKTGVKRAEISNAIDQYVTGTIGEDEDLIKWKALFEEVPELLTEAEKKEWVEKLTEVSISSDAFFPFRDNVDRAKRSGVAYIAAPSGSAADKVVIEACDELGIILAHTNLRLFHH

| Compound | Ki |
| --- | --- |
| Cc1ccc2cc(NS(=O)(=O)c3ccc(CSc4nc(-c5ccc(-c6cccs6)s5)c(C#N)c(=O)[nH]4)cc3)ccc2n1 [Compound 16, N-(2-Methylquinolin-6-yl) 4-[([5-cyan-6-(5-[2-thienyl]thien-2yl)-4(3H)-oxopyrimidin-2-yl]thio)methyl]benzenesulfonamide] | 430 nM |
| N#Cc1c(-c2ccc(-c3cccs3)s2)nc(SCc2ccc(NS(=O)(=O)c3ccc(F)cc3)cc2Cl)[nH]c1=O [Compound 21, N-(3-Chloro-4-[([5-cyano-6-(5-[2-thienyl]thien-2-yl)-4(3H)-oxopyrimidin-2-yl]thio)methyl]phenyl) 4-fluorobenzenesulfonamide] | 29 nM |
| O=C(O)CCC(NC(=O)c1ccc(CCCCSc2nc(-c3ccccc3)cc(=O)[nH]2)s1)C(=O)O (stereo not drawn) [Compound 11, N-(5-[5-([6-Phenyl-4(3H)-oxopyrimidin-2-yl]thio)butyl]thio2-yl)glutamic acid] | 6800 nM |
| CN(c1ccc(CSc2nc(-c3ccc(-c4cccs4)s3)c(C#N)c(=O)[nH]2)cc1)S(=O)(=O)c1ccc(F)cc1 [Compound 20, N-(4-[([5Cyano-6(5-[2-thienyl]thien-2-yl)-4(3 H)-oxopyrimidin-2-yl]thio)methyl]phenyl)-N-methyl 4-fluorobenzenesulfonamide] | 1800 nM |
| O=C(O)c1ccc(CCCCCSc2nc(-c3ccc(-c4cccs4)s3)cc(=O)[nH]2)s1 [Compound 3, 5-[5-([6-(5-[2-Thienyl]thien-2-yl)-4(3H)-oxopyrimidin-2-yl]thio)pentyl]thiophene-2-carboxylic acid] | 280 nM |
| O=C(O)CCC(NC(=O)c1ccc(CCSc2nc(-c3ccccc3)cc(=O)[nH]2)s1)C(=O)O (stereo not drawn) [Compound 12, N-(5-[2-([6-Phenyl-4(3H)-oxopyrimidin-2-yl]thio)ethyl]theno-2-yl)glutamic acid] | 8900 nM |
| COc1cc(NS(=O)(=O)c2ccc(F)cc2)ccc1CSc1nc(-c2ccc(-c3cccs3)s2)c(C#N)c(=O)[nH]1 [Compound 23, N-(4-[([5-Cyano-6-(5-[2-thienyl]thien-2-yl)-4(3H)-oxopyrimidin-2-yl]thio)methyl]-3-methoxyphenyl) 4-fluorobenzenesulfonamide] | 770 nM |
| N#Cc1c(-c2ccc(-c3cccs3)s2)nc(SCc2ccc(S(=O)(=O)Nc3ccc(F)cc3)cc2Cl)[nH]c1=O [Compound 19, N-(4-Fluorophenyl) 4-[([5-cyano-6-(5-[2-thienyl]thien-2-yl)-4(3H)-oxopyrimidin-2-yl]thio)methyl]-3-chlorobenzenesulfonamide] | 400 nM |
| N#Cc1c(-c2ccc(-c3cccs3)s2)nc(SCCCCCc2ccc(C(=O)NC(CCC(=O)O)C(=O)O)s2)[nH]c1=O (stereo not drawn) [Compound 10, N-(5-[5-([5-Cyano-6-(5-[2-thienyl]thien-2-yl)-4(3H)-oxopyrimidin-2-yl]thio)pentyl]theno-2-yl)glutamic acid] | 4 nM |
| O=C(O)c1ccc(CCCCCSc2nc(-c3cccc(-c4nn[nH]n4)c3)cc(=O)[nH]2)s1 [Compound 26, 5-[5-([6-(3-[1(H)-Tetrazol-5-yl]phenyl)-4(3H)-oxopyrimidin-2-yl]thio)pentyl]thiophene-2-carboxylic acid] | 370 nM |
| N#Cc1c(-c2ccc(-c3cccs3)s2)nc(SCc2cccc(NS(=O)(=O)c3ccc(F)cc3)c2)[nH]c1=O [Compound 25, N(3-[([5-Cyano-6-(5-[2-thienyl]thien-2-yl)-4(3H)-oxopyrimidin-2-yl]thio)methyl]phenyl) 4-fluorobenzenesulfonamide] | 1400 nM |
| N#Cc1c(-c2ccc(-c3cccs3)s2)nc(SCCCCCc2ccc(C(=O)O)s2)[nH]c1=O [Compound 8, [5-([5-Cyano-6-(5-[2-thienyl]thien-2-yl)-4(3H)-oxopyrimidin-2-yl]thio)pentyl]thiopbene-2-carboxylic acid] | 40 nM |
| O=C(O)c1ccc(CCCSc2nc(-c3ccccc3)cc(=O)[nH]2)s1 [Compound 2, 5-(3-[(6-Phenyl-4(3H)-oxopyrimidin-2-yl)thio]propyl)thiophene-2-carboxylic acid] | 7200 nM |
| O=C(O)c1ccc(CCCCCSc2nc(-c3ccccc3)cc(=O)[nH]2)s1 [Compound 1, 5-(5-[(6-Phenyl-4(3H)-oxopyrimidin-2-yl)thio]pentyl)thiophene2-carboxylic acid] | 3500 nM |
| Cc1cc(CSc2nc(-c3ccc(-c4cccs4)s3)c(C#N)c(=O)[nH]2)ccc1S(=O)(=O)Nc1ccc(F)cc1 [Compound 17, N-(4-Fluorophenyl) 4-[([5-cyano-6-(5-[2-thienyl]thien-2-yl)-4(3H)-oxopyrimidin-2-yl]thio)methyl]-2-methylbenzenesulfonamide] | 1000 nM |
| O=C(O)c1ccc(CCCCCSc2nc(-c3ccc(N4CCOCC4)cc3)cc(=O)[nH]2)s1 [Compound 7, 5-[5-([6-(4-Morpholinylphenyl)-4(3H)-oxopyrimidin-2-yl]thio)pentyl]-thiophene-2-carboxylic acid] | 220 nM |
| COc1cc(CSc2nc(-c3ccc(-c4cccs4)s3)c(C#N)c(=O)[nH]2)ccc1NS(=O)(=O)c1ccc(F)cc1 [Compound 24] | 1300 nM |
| N#Cc1c(-c2ccc(-c3cccs3)s2)nc(SCc2ccc(S(=O)(=O)NCCc3c[nH]c4ccccc34)cc2)[nH]c1=O [Compound 27, N-(2-[1(H)-indol-3-yl]-ethyl) 4-[([5-cyano-6-(5-[2-thienyl]thien-2-yl)-4(3H)-oxopyrimidin-2-yl]thio)methyl]benzenesulfonamide] | 83 nM |
| O=C(O)c1ccc(CCCCCSc2nc(-c3ccc(-c4ccccc4)cc3)cc(=O)[nH]2)s1 [Compound 5, 5-[5-([6-(4-Biphenylyl)-4(3H)-oxopyrimidin-2-yl]thio)pentyl]thiophene-2-carboxylic acid] | 270 nM |
| CN(c1ccc(F)cc1)S(=O)(=O)c1ccc(CSc2nc(-c3ccc(-c4cccs4)s3)c(C#N)c(=O)[nH]2)cc1 [Compound 15, N-(4-Fluorophenyl)-N-methyl 4-[([5cyano-6-(5-[2-thienyl]thien-2-yl)-4(3H)-oxopyrimidin-2-yl]thio)methyl]benzenesulfonamide] | 2100 nM |
| N#Cc1c(-c2ccc(-c3cccs3)s2)nc(SCc2ccc(NS(=O)(=O)c3ccc(F)cc3)cc2)[nH]c1=O [Compound 18, N-(4-[([5-Cyano-6-(5-[2-thienyl]thien-2-yl)-4(3H)-oxopyrimidin-2-yl]thio)methyl]phenyl) 4-fluorobenzenesulfonamide] | 380 nM |
| Cc1cc(CSc2nc(-c3ccc(-c4cccs4)s3)c(C#N)c(=O)[nH]2)ccc1NS(=O)(=O)c1ccc(F)cc1 [Compound 22, N-(4-[([5-Cyano-6-(5-[2-thienyl]thien-2-yl)4(3H)-oxopyrimidin-2-yl]thio)methyl]-2-methylphenyl) 4-fluorobenzenesulfonamide] | 1000 nM |
| O=C(O)CCC(NC(=O)c1ccc(CCCSc2nc(-c3ccccc3)cc(=O)[nH]2)s1)C(=O)O (stereo not drawn) [Compound 13, N-(5-[3-([6Phenyl-4(3H)-oxopyrimidin-2-yl]thio)propyl]theno-2-yl)glutamic acid] | 5300 nM |
| O=C(O)c1ccc(CCCCCSc2nc(-c3ccc(Oc4ccccc4)cc3)cc(=O)[nH]2)s1 [Compound 6, 5-[5-([6-(4-Phenoxypheuyl)-4(3H)-oxopyrimidin-2-yl]thio)pentyl]thiophene-2-carboxylic acid] | 430 nM |
| N#Cc1c(-c2ccc(-c3cccs3)s2)nc(SCc2ccc(S(=O)(=O)Nc3ccc(F)cc3)cc2)[nH]c1=O [Compound 14, N-(4-Fluorophenyl) 4-[([5-cyano-6-(5-[2-thienyl]thien-2-yl)-4(3H)-oxopyrimidin-2-yl]thio)methyl]benzenesulfonamide] | 590 nM |
| COC(=O)c1ccc(CCCCCSc2nc(-c3ccc(-c4ccccc4)cc3)cc(=O)[nH]2)s1 [Compound 4, Methyl 5-[5-([6-(4-biphenylyl)-4(3H)-oxopyrimidin-2-yl]thio)pentyl]-thiophene-2-carboxylate] | 54700 nM |
| O=C(O)CCC(NC(=O)c1ccc(CCCCCSc2nc(-c3ccccc3)cc(=O)[nH]2)s1)C(=O)O (stereo not drawn) [Compound 9, N-(5-[5-([6-Phenyl-4(3H)-oxopyrimidin-2-yl]thio)pentyl]theno-2-yl)glutamic acid] | 460 nM |
